Results from article PMC4077824, “Conserved Prosegment Residues Stabilize a Late-Stage Folding Transition State of Pepsin Independently of Ground States” (PLoS ONE, 2014).
Values joined by “and” are separate entries in the source; they are usually repeats but may differ in a detail not shown here. Identical values can stand only once. “Also recorded” adds a separate entry of the source. Where no end group is shown, it is not given here.

Experiments:
[1] = molecular target: T1, refolded pepsin (Rp) (Sus scrofa, UniProt P00791); experiment: PS-catalyzed folding of Rp to Np (recovery of Np activity); format: biochemical, porcine; conditions: for k f (PS-catalyzed folding rate constant): 1 µM Rp, 30 µM PS, pH 5.3 (20 mM acetic acid/NaOH, 100 mM NaCl), Np activity assayed at pH 1.2, 25°C with KPAEFF(NO2)AL, monoexponential fit, mean ± SD from non-linear curve fitting, 3-5 measurements; for k f (PS-catalyzed folding rate constant) / ΔΔG^‡ (change in folding activation energy upon mutation): 15°C; for ΔΔG^‡ (change in folding activation energy upon mutation): from k f, pH 5.3, relative to WT, ± SD by propagation of errors; for effect on rate of PS-catalyzed folding (in words): pH 5.3, 15°C, compared with PSwt
T1 construct: Only the R13 and K36 side-chains of the PS form hydrogen bonds with the mature pepsin domain; purchased Sigma (St. Louis, MO, USA)
T1 sequence (P00791 60-385): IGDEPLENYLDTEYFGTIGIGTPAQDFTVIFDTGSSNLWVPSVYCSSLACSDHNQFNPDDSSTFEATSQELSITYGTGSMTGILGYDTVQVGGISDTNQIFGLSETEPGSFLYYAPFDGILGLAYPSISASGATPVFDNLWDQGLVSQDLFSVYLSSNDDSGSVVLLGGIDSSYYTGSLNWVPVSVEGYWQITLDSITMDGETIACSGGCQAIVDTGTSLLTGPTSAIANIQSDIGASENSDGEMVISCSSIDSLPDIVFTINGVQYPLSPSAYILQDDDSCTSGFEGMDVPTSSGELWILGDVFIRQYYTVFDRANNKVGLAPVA
Experimental: PS-catalyzed folding of Rp to Np
PS-catalyzed folding was carried out by combining 1 µM Rp and 30 µM PS, in a volume of 100 µl, at pH 5.3 (20 mM acetic acid/NaOH with 100 mM NaCl) and 15°C. Aliquots were taken at several time intervals, diluted 20-fold in 50 mM phosphoric acid buffer, pH 1.2, incubated for 5 min at 25°C and assayed for Np activity using the KPAEFF(NO2)AL substrate. The recovery of Np activity with time, t, was fit with a monoexponential function (y = a – bexp(–k f t)) to obtain the PS-catalyzed folding rate constant, k f. Under these conditions, PS binding to Rp reached equilibrium within the dead-time of mixing (<8 sec), as judged by Trp-fluorescence.
(§1) The change in stability of the folding transition state upon mutation was calculated using [drawing 3] (3) where k f, wt and k f, mut are the PS-catalyzed folding rate constants of the wild-type and mutant PS peptides. The change in equilibrium stability of PS-Np relative to PS-Rp upon mutation of the PS (ΔΔGPS(Np-Rp)) was determined as the difference between the changes in binding energies, using [drawing 4] (4) and [drawing 5] (5)
Temperature dependence of PS-catalyzed folding
PS-catalyzed folding could be measured only up to 15 °C for PSwt, as the reaction was too fast at higher temperatures. […] Given the linear temperature dependence it could be reasonably assumed that changes in activation energies (mutant – wild-type) would be unchanged from 15 °C to 20 °C, and so could be compared directly with changes in binding energies (wild-type – mutant) that were determined at 20 °C.

[2] = molecular target: T2, native pepsin (Np) (Sus scrofa, UniProt P00791); experiment: PS binding to Np (competitive inhibition of KPAEFF(NO2)AL hydrolysis); format: biochemical, porcine; conditions: for Ki: 10 nM Np, 20 mM acetic acid/NaOH pH 5.3, 100 mM NaCl, 5 min incubation, substrate KPAEFF(NO2)AL 0.1 mM, absorbance 300 nm, competitive model, mean ± SD from non-linear curve fitting, 3-5 measurements, read-out: K i (PS-Np inhibition constant); for Ki / ΔΔGPS-Np (change in PS-Np binding energy upon mutation): 20°C; for ΔΔGPS-Np (change in PS-Np binding energy upon mutation): from K i, pH 5.3, relative to WT, ± SD by propagation of errors; for effect on affinity for Np / PS-Np stability (in words): pH 5.3, 20°C, PS inhibition of Np, compared with PSwt
T2 construct: Only the R13 and K36 side-chains of the PS form hydrogen bonds with the mature pepsin domain; purchased Sigma (St. Louis, MO, USA)
T2 sequence (P00791 60-385): as above
Experimental: PS binding to Np was determined by using the PS as a competitive inhibitor and measuring the inhibition constant, K i. Hydrolysis of the KPAEFF(NO2)AL substrate was measured by following the decrease in absorbance at 300 nm using a Biochrom Ultrospec 3100pro UV-Vis spectrophotometer (Biochrom Ltd., Cambridge, England) in 20 mM acetic acid/NaOH buffer, pH 5.3, containing 100 mM NaCl. Np samples were diluted to 10 nM and incubated with PS for 5 min at 20°C and assayed for activity. The reaction rates were normalized to the activity in the absence of PS and the data fit using the competitive inhibitor form of the Michaelis-Menten equation [drawing 2] (2) where v0 is the initial reaction rate, V max is the maximum reaction rate, [S] is the substrate concentration (fixed at 0.1 mM), [I] is the inhibitor concentration, and K M is the Michaelis constant.
as §1
(§2) Here, ΔΔGbind refers to either ΔΔGPS-Rp, determined from K d values, or ΔΔGPS-Np, determined from K i values. The Φ-value for each mutant corresponds to eq 3 divided by eq 5. Additional details are included in the supporting information section (Text S1).

[3] = molecular target: T1, refolded pepsin (Rp); experiment: PS binding to Rp (Trp-fluorescence); design: species or system porcine; conditions: for Kd: 0.6-1.2 µM Rp, 20 mM acetic acid/NaOH pH 5.3 without added NaCl, ≥10 min, Trp-fluorescence ex 295 nm, em 315 nm, mean ± SD from non-linear curve fitting, 3-5 measurements, read-out: K d (PS-Rp dissociation constant); for Kd / ΔΔGPS-Rp (change in PS-Rp binding energy upon mutation): 20°C; for ΔΔGPS-Rp (change in PS-Rp binding energy upon mutation): from K d, pH 5.3, relative to WT, ± SD by propagation of errors
Experimental: The change in intrinsic tryptophan fluorescence of pepsin was used to measure the binding of PS to Rp and to determine the dissociation constant, K d. Rp solutions were diluted to between 0.6 and 1.2 µM in 20 mM acetic acid/NaOH buffer, pH 5.3, and mixed with various amounts of PS. After incubating the samples at 20°C for ≥10 minutes, the intrinsic tryptophan fluorescence was measured using a PTI spectrofluorophotometer (Photon Technology International, Inc., Birmingham NJ, USA), with excitation at 295 nm and emission measured at 315 nm. The change in fluorescence, ΔF i, at each PS concentration, [PS], was normalized relative to the maximum change, ΔF max, and fit according to [drawing 1] (1) where [Rp] is the total concentration of pepsin.
PS binding to Rp was measured in buffer without added 100 mM NaCl in order to obtain more accurate measurements of K d, owing to a larger change in signal in the absence of salt. Additionally, without added 100 mM NaCl it was possible to isolate the PS-Rp binding step from the catalyzed folding step thereby improving the determination of K d.
as §1, §2

[4] = system: pepsin (PS-Rp, PS-TS, PS-Np complexes); experiment: Φ-value analysis from PS-catalyzed folding and binding constants; design: species or system porcine; conditions: ± SD by propagation of errors; for Φ: ratio ΔΔG^‡/ΔΔGPS(Np-Rp); for ΔΔGPS(Np-Rp) (change in equilibrium stability of PS-Np relative to PS-Rp): ΔΔGPS-Np minus ΔΔGPS-Rp
Experimental: Calculation of Φ-values from PS-catalyzed folding and binding constants
as §1, §2
As outlined below, ∆Gbind values are used to calculate ∆∆GPS(Np-Rp), which is the change in the equilibrium free energy difference between PS-Np and PS-Rp upon mutation of the PS (for a diagram of the folding reaction, see Fig S1)
ΔΔGbind can refer to either ∆∆G^PS-Np(wt-mut) or ∆∆G^PS-Rp(wt-mut). Also, we can write ∆Gbind in terms of its components
where ∆GPS, ∆Gpepsin and ∆Gsolvent refer to the change in free energy of the PS, pepsin and the solvent upon PS binding to pepsin, respectively. Combining equations S1 and S2 gives
The contribution of each component to ∆∆Gbind will depend on the particular mutation (e.g., nature of substitution, location within folded structure, solvent accessibility). This is the general case for protein engineering analysis, in which the effects of mutations on changes in equilibrium and activation energies are the result of many individual interaction energy terms, including solvent terms, as previously explained in detail [Fersht AR, Matouschek A, Serrano L (1992) The folding of an enzyme I. Theory of protein engineering analysis of stability and pathway of protein folding. J Mol Biol 224: 771‒782]. Most importantly, there is no requirement to separate ΔΔGbind into its components in order to proceed with analysis as we are interested in the overall change in equilibrium stability of the PS-pepsin complex (∆∆GPS(Np-Rp))
This bimolecular approach to Φ-value analysis of protein folding is qualitatively identical to Φ-value analysis as it was originally applied to the study of enzyme catalysis. As outlined previously [Fersht AR], changes in the free energy of enzyme (E) binding to substrate (S) or product (P) are used to determine the change in free energy difference between E-P and E-S upon mutation, ∆∆G^EP-ES(wt-mut), where
As these are at the scale of global energy terms, equations S4 and S5 are equivalent and PS-catalyzed folding can be treated similarly as enzyme catalysis, in which the PS is the foldase and the denatured and natively folded protein are the substrate and product, respectively. However, protein folding reactions are more complicated to interpret at the level of individual interaction energy terms, which are more numerous [Fersht AR].
Changes in the binding energies between PS-Rp and PS-Np upon PS mutation can then be used to determine Φ-values with the following considerations:
1. Free PS is unstructured (see Fig S6), so Ala mutations are expected to have a negligible effect on the stability and conformation of free PS.
2. Changes in binding and folding upon mutation can be localized to the loss of interactions in the immediate vicinity of the truncation mutation (i.e., larger residue mutated to Ala), and not due to gross conformational changes of the PS or changes in the binding/folding mechanism (consider as strong evidence that all of the mutant PS’s readily catalyze folding to the native, active form).
3. Changes in PS-Rp and PS-Np binding energies upon mutation (∆∆G^PS-Np(wt-mut) and ∆∆G^PS-Rp(wt-mut)) are measured directly, while the change in the PS-TS binding energy (∆∆G^PS-TS(wt-mut)) is the sum of ∆∆G^PS-Rp(wt-mut) and ∆∆G^‡(wt-mut).
4. Φ-values are calculated using […]

[5] = system: pepsin; conditions: native state relative to an intermediate state; ref [7]; cited from earlier work
Excerpt: General thermodynamic and kinetic features of protein folding are known, such as that the natively folded conformation of a protein is thermodynamically stabilized and that there is a relationship between topology and folding rate, which holds for both two-state and multi-state folding proteins, [3]. However, zymogen-derived proteins which require a prosegment (PS) domain to catalyze folding, such as the serine peptidases αLP [4], SGPB [5], and subtilisin [6], and the aspartic peptidase pepsin [7], deviate from the common thermodynamic and kinetic trends in protein foldin ... || Pepsin, which is derived from its zymogen pepsinogen, folds to a thermodynamically stable yet non-native form (termed refolded pepsin, Rp) upon removal from denaturing conditions. […] In the case of pepsin, Rp was characterized by a ΔG unf of 5.8 kcal/mol, a 10% increase in unordered secondary structure and identical tertiary structure to Np (both yield R g ∼20 Å).

[6] = pH 5.3, 20°C, compared with PSwt

Substance	k f (PS-catalyzed folding rate constant) [1] [min⁻¹]	ΔΔG^‡ (change in folding activation energy upon mutation) [1] [kcal/mol]	Ki [2] [nM]	ΔΔGPS-Np (change in PS-Np binding energy upon mutation) [2] [kcal/mol]	Kd [3] [nM]	ΔΔGPS-Rp (change in PS-Rp binding energy upon mutation) [3] [kcal/mol]	reduction in binding affinity for Rp [3, 6] [fold]	Φ [4]	ΔΔGPS(Np-Rp) (change in equilibrium stability of PS-Np relative to PS-Rp) [4] [kcal/mol]	effect on affinity for Np / PS-Np stability (in words) [2]	effect on affinity for Rp / PS-Rp stability (in words) [3, 6]	effect on rate of PS-catalyzed folding (in words) [1]	ΔG N-I [5] [kcal/mol]
LVKVPLVRKKSLRQNLIKNGKLKDFLKTHKHNPASAYFPEAAAL [K36A]	0.28 ± 0.03	0.94 ± 0.15	113 ± 20.3	0.33 ± 0.15	720 ± 140	0.50 ± 0.13				nearly equally destabilizing to PS-Rp and PS-Np	nearly equally destabilizing to PS-Rp and PS-Np		
LVKVPLVRKKSLRQNLIKNGKLKDALKTHKHNPASKYFPEAAAL [F25A]	0.26 ± 0.04	0.96 ± 0.17	230 ± 29.1	0.74 ± 0.13	250 ± 30	-0.12 ± 0.08		1.1 and 1.1±0.3	0.86 ± 0.15		negligible effect on PS-Rp binding		
pepsin: Porcine pepsin A (EC 3.4.23.1); native pepsin (Np)													-0.1
LVKVPAVRKKSLRQNLIKNGKLKDFLKTHKHNPASKYFPEAAAL [L6A]	0.13 ± 0.01	1.36 ± 0.15	193 ± 38.8	0.64 ± 0.16	640 ± 90	0.43 ± 0.10						slowest folding rate	

Now from value to substance, other results behind:

k f (PS-catalyzed folding rate constant) [1] [min⁻¹]	ΔΔG^‡ (change in folding activation energy upon mutation) [1] [kcal/mol]	Ki [2] [nM]	ΔΔGPS-Np (change in PS-Np binding energy upon mutation) [2] [kcal/mol]	Kd [3] [nM]	ΔΔGPS-Rp (change in PS-Rp binding energy upon mutation) [3] [kcal/mol]	reduction in binding affinity for Rp [3, 6] [fold]	Φ [4]	ΔΔGPS(Np-Rp) (change in equilibrium stability of PS-Np relative to PS-Rp) [4] [kcal/mol]	Substance	effect on affinity for Np / PS-Np stability (in words) [2]	effect on affinity for Rp / PS-Rp stability (in words) [3, 6]	effect on rate of PS-catalyzed folding (in words) [1]	ΔG N-I [5] [kcal/mol]
0.24 ± 0.02	1.02 ± 0.15	382 ± 37.2	1.03 ± 0.12	1960 ± 290	1.08 ± 0.10	7			LVKVPLVRKKSLAQNLIKNGKLKDFLKTHKHNPASKYFPEAAAL [R13A]	largest reduction in affinities for Np; also recorded: destabilized both the PS-Np and PS-Rp complexes	destabilized both the PS-Np and PS-Rp complexes		
0.18 ± 0.02	1.18 ± 0.15	270 ± 31.5	0.83 ± 0.12	680 ± 70	0.47 ± 0.08		3.2±1.4	0.36 ± 0.15	LVKVPLVRKKALRQNLIKNGKLKDFLKTHKHNPASKYFPEAAAL [S11A]			a burst-phase in the folding kinetics was noticeable	
